Assay results from ChEMBL document CHEMBL5291721, “A preclinical secondary pharmacology resource illuminates target-adverse drug reaction associations of marketed drugs” (Nat Commun, 2023).

How the values were obtained:
[1] = biological target: T1, Alpha-1A adrenergic receptor (Homo sapiens, UniProt P35348); format: functional, cell-based
T1 sequence (P35348 whole entry): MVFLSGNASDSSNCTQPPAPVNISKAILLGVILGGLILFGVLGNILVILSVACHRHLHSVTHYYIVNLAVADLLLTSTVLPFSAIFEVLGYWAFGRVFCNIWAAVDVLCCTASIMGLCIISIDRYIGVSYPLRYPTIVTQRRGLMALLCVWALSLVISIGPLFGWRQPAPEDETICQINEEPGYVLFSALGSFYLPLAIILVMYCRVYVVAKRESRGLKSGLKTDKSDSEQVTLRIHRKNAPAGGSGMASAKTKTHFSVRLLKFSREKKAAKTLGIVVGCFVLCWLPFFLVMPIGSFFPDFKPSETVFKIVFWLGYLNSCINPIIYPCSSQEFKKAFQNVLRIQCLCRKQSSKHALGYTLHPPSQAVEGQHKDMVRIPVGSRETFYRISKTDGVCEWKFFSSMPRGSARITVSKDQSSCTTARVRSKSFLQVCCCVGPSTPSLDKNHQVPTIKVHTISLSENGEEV

[2] = biological target: Growth hormone secretagogue receptor type 1 (Homo sapiens, UniProt Q92847)
Sequence of Growth hormone secretagogue receptor type 1 (Q92847 whole entry): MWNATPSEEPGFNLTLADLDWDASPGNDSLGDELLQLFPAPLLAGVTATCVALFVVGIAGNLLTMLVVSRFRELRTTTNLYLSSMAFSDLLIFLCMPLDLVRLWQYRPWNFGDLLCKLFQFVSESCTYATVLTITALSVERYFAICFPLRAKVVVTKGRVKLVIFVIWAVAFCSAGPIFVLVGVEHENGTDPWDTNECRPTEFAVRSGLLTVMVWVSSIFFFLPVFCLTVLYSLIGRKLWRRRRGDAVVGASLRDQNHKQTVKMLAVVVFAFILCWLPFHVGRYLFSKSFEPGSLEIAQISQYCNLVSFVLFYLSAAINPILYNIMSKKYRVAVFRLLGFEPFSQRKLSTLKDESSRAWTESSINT

[3] = biological target: T2, Amine oxidase [flavin-containing] A (Homo sapiens, UniProt P21397); format: functional
T2 sequence (P21397 whole entry): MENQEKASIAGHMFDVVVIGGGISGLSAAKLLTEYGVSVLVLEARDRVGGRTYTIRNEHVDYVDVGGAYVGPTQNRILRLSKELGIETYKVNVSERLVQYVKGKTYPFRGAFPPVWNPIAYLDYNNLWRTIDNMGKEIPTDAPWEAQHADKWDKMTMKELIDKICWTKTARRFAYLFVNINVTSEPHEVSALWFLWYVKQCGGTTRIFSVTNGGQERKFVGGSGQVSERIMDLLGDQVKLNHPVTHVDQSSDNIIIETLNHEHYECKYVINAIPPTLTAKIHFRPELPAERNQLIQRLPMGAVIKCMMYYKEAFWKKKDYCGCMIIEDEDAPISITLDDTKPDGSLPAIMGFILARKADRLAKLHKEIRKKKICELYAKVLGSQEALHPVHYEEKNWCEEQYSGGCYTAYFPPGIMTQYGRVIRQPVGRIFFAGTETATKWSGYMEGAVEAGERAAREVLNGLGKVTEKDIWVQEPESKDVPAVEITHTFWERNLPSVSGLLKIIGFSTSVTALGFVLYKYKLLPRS

[4] = biological target: cGMP-inhibited 3',5'-cyclic phosphodiesterase 3A (Homo sapiens, UniProt Q14432); format: functional
Sequence of cGMP-inhibited 3',5'-cyclic phosphodiesterase 3A (Q14432 whole entry): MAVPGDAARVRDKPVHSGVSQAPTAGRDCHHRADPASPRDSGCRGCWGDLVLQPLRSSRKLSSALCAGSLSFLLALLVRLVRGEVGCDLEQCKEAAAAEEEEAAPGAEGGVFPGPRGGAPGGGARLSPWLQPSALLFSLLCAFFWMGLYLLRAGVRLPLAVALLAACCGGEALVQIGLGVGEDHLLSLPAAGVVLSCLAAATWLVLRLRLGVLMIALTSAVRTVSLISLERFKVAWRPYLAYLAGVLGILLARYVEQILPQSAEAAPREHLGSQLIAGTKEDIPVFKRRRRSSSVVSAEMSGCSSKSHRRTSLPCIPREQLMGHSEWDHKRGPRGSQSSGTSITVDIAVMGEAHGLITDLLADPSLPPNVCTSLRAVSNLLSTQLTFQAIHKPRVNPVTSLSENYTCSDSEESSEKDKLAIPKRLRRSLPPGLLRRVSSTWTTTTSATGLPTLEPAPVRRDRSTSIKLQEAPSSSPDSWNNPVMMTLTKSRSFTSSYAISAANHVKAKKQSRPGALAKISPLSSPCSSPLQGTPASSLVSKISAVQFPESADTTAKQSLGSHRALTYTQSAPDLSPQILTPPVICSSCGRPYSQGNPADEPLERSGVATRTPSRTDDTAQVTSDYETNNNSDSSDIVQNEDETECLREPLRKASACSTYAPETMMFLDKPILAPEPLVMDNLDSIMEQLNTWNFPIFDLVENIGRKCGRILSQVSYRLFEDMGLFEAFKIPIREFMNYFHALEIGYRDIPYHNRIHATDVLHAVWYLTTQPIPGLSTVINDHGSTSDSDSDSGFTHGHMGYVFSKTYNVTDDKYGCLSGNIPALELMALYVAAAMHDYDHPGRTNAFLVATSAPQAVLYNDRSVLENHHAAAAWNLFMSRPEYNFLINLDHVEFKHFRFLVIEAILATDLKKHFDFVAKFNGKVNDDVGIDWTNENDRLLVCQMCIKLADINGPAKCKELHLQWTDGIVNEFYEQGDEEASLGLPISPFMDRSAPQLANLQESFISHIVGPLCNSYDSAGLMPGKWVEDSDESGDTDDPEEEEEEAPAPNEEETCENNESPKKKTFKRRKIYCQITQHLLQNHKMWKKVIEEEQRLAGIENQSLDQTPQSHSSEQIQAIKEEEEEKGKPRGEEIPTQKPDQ

[5] = biological target: T3, 5-hydroxytryptamine receptor 1A (Homo sapiens, UniProt P08908); format: functional, cell-based
T3 sequence (P08908 whole entry): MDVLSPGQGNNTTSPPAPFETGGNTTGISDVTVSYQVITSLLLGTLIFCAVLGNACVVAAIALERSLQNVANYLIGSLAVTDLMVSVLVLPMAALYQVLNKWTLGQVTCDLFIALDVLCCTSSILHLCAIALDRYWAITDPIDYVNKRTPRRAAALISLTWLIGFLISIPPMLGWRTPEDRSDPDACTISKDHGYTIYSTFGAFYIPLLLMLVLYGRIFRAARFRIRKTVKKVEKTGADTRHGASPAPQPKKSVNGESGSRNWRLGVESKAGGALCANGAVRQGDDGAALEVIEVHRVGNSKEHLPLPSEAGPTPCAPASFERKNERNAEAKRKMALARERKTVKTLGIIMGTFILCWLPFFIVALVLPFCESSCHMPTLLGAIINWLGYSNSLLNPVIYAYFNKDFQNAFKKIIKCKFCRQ

[6] = biological target: Histamine H2 receptor (Homo sapiens, UniProt P25021); format: functional, cell-based
Sequence of Histamine H2 receptor (P25021 whole entry): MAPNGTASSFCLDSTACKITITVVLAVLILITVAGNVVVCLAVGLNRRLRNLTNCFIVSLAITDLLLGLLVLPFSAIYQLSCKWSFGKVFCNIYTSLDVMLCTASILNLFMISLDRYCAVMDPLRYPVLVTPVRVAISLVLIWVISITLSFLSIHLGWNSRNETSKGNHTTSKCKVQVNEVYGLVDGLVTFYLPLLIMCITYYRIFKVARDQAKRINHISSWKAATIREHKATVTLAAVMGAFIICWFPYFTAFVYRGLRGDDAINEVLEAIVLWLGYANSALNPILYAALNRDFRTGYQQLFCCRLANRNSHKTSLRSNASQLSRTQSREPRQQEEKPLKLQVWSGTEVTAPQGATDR

[7] = biological target: T4, B2 bradykinin receptor (Homo sapiens, UniProt P30411)
T4 sequence (P30411 whole entry): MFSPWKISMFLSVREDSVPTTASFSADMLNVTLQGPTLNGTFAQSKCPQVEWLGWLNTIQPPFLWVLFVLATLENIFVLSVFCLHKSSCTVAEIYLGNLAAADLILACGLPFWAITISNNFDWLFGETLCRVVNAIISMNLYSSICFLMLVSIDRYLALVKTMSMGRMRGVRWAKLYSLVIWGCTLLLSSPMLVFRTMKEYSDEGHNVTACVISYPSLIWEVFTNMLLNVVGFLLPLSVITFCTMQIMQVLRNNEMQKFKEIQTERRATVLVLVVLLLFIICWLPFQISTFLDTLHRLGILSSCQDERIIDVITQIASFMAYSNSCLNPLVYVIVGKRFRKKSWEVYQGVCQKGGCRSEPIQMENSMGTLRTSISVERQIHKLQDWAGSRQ

[8] = biological target: Voltage-gated inwardly rectifying potassium channel KCNH2 (Homo sapiens, UniProt Q12809); format: functional; details: read-out: AC50
Sequence of Voltage-gated inwardly rectifying potassium channel KCNH2 (Q12809 whole entry): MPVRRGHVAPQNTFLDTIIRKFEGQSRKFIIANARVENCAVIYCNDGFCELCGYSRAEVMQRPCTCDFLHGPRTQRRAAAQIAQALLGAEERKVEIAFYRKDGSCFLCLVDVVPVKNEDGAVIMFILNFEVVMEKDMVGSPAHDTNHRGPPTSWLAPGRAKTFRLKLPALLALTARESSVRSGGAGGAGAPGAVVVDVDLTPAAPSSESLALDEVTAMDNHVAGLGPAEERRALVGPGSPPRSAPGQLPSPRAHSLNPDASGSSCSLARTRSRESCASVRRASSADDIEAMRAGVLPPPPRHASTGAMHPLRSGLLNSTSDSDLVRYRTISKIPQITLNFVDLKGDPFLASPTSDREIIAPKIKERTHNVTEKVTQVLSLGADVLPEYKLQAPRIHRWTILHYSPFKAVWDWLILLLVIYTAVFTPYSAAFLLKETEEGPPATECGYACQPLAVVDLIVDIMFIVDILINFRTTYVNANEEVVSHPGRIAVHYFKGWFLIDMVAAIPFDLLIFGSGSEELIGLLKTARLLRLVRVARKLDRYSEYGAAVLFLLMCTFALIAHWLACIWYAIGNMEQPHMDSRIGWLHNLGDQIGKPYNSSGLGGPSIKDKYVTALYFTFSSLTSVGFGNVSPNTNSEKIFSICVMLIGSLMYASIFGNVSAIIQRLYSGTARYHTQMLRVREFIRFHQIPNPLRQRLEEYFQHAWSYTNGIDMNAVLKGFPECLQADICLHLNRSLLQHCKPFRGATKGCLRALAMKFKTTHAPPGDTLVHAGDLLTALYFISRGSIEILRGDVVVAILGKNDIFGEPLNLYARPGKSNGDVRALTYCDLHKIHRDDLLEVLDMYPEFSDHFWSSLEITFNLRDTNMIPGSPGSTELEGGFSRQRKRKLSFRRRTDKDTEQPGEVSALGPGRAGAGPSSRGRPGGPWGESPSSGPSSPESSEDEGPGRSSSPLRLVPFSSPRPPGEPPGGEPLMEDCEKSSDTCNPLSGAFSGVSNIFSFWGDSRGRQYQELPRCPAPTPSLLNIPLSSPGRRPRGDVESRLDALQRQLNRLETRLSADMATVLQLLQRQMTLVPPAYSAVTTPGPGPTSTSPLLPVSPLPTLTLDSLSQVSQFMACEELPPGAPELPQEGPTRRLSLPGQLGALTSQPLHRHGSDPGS

[9] = biological target: Kappa-type opioid receptor (Homo sapiens, UniProt P41145)
Sequence of Kappa-type opioid receptor (P41145 whole entry): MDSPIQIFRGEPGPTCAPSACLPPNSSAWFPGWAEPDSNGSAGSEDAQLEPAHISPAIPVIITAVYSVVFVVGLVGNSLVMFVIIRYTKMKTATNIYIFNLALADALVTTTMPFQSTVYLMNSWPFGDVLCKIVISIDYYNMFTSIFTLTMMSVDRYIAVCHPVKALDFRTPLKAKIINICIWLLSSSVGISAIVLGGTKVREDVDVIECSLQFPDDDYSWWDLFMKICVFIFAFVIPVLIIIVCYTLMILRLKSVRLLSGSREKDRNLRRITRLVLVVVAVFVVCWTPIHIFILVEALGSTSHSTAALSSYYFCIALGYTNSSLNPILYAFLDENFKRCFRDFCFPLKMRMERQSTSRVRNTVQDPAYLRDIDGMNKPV

[10] = biological target: T5, Muscarinic acetylcholine receptor M1 (Homo sapiens, UniProt P11229); format: functional
T5 sequence (P11229 whole entry): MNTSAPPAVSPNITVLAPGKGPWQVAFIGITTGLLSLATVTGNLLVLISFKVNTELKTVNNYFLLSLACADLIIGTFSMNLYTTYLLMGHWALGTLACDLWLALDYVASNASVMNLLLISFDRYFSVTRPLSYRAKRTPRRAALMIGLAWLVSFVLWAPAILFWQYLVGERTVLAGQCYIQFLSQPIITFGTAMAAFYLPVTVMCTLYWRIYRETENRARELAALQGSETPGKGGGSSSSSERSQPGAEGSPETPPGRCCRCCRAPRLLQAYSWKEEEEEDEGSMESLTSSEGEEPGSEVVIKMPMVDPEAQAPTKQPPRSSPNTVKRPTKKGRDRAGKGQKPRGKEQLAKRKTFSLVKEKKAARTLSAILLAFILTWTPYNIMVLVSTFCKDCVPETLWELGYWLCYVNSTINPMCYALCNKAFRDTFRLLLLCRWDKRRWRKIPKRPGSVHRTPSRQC

Measured: AC50
Also: assay procedure not described here.

COc1ccc2c(c1)c(CC(=O)OCC(=O)O)c(C)n2C(=O)c1ccc(Cl)cc1 [ACEMETACIN]
25 µM: [5]
> 30 µM: [1] | [2] | [3] | [4] | [6] | [7] | [8] | [9]

Nc1ncnc2c1ncn2[C@@H]1O[C@H](COP(=O)(O)O)[C@@H](O)[C@H]1O [ADENOSINE PHOSPHATE]
15 µM: [8]
> 30 µM: [1] | [2] | [3] | [10] | [6] | [7] | [9]
16 µM: [4]

CCCC(CCC)C(=O)O[C@H]1C[C@H]2CC[C@@H](C1)[N+]2(C)C [ANISOTROPINE]
2.1 µM: [8]
> 30 µM: [1] | [2] | [3] | [4] | [6] | [7] | [9]
0.17 µM: [10]

CN1CCc2cccc3c2[C@H]1Cc1ccc(O)c(O)c1-3 [APOMORPHINE]
0.32 µM: [1]
19.4 µM: [9]
> 10 µM: [3] | [6]
> 30 µM: [2] | [10] | [4] | [7]

CN1C(=O)COc2c(C(=O)NC3CN4CCC3CC4)cc(Cl)cc21 (centres undefined) [AZASETRON]
> 30 µM: [1] | [2] | [3] | [5] | [6] | [7] | [9]
> 10 µM: [4]
8.5 µM: [8]

Cc1cc2c(OCC(CNC(C)(C)C)OC(=O)c3ccccc3)cccc2[nH]1 (centres undefined) [BOPINDOLOL]
> 30 µM: [1] | [3] | [4] | [6] | [7]
16 µM: [2]
0.028 µM: [5]
2.1 µM: [9]
0.49 µM: [8]

CCOC(=O)[C@H](CCc1ccccc1)N[C@H]1CCCN2CCC[C@@H](C(=O)O)N2C1=O [CILAZAPRIL]
> 30 µM: [1] | [2] | [3] | [10] | [4] | [6] | [7] | [8] | [9]

CCOc1cc(N)c([N+](=O)[O-])cc1C(=O)NC1CCN(CC2CC=CCC2)CC1 (centres undefined) [CINITAPRIDE]
14 µM: [10]
> 30 µM: [1] | [2] | [3] | [4] | [6] | [7]
0.31 µM: [8]
9.1 µM: [9]

CC(C)(Oc1ccc(C2CC2(Cl)Cl)cc1)C(=O)O (centres undefined) [CIPROFIBRATE]
> 30 µM: [1] | [2] | [3] | [4] | [5] | [6] | [7] | [8] | [9]

COC(=O)[C@H]1[C@@H](OC(=O)c2ccccc2)C[C@@H]2CC[C@H]1N2C [COCAINE]
> 30 µM: [1] | [2] | [10] | [4] | [6] | [7] | [9]
19 µM: [3]

Cc1c(O)c(=O)ccn1C [DEFERIPRONE]
> 30 µM: [1] | [2] | [3] | [4] | [5] | [6] | [7] | [8] | [9]

O=C(O)Cc1cn(-c2ccccc2)nc1-c1ccc(Cl)cc1 [LONAZOLAC]
> 30 µM: [1] | [2] | [10] | [4] | [6] | [7] | [8] | [9]

Cc1cccc(C)c1NC(=O)C1CCCCN1C (centres undefined) [MEPIVACAINE]
> 30 µM: [1] | [2] | [3] | [4] | [5] | [6] | [7] | [8] | [9]

C[C@]12CCC(=O)C=C1CC[C@@H]1[C@@H]2CC[C@@]2(C)[C@H]1CC[C@]2(C)O [METHYLTESTOSTERONE]
> 30 µM: [1] | [2] | [3] | [4] | [5] | [6] | [7] | [8] | [9]

NC(=O)C[S+]([O-])C(c1ccccc1)c1ccccc1 (centres undefined) [MODAFINIL]
> 30 µM: [1] | [2] | [4] | [7] | [8]
> 10 µM: [3] | [5] | [6] | [9]

CN1C(=O)CC(c2ccccc2)C1=O (centres undefined) [PHENSUXIMIDE]
> 30 µM: [4] | [8]
> 10 µM: [2] | [3] | [10] | [6] | [7] | [9]

Nc1nc2ccc(OC(F)(F)F)cc2s1 [RILUZOLE]
> 30 µM: [1] | [2] | [3] | [4] | [5] | [6] | [7] | [9]

O=C1NCCN1CCN1CCC(c2cn(-c3ccc(F)cc3)c3ccc(Cl)cc23)CC1 [SERTINDOLE]
> 30 µM: [1] | [4] | [6] | [7]
5 µM: [10]
22 µM: [3]
3.7 µM: [9]
28 µM: [2]

Cc1c(C(=O)Nc2ccc(N3C[C@@H](C)O[C@@H](C)C3)nc2)cccc1-c1ccc(OC(F)(F)F)cc1 [SONIDEGIB]
> 10 µM: [10] | [9]
> 30 µM: [2] | [4] | [7]

Cc1ccc(-c2nc3ccc(C)cn3c2CC(=O)N(C)C)cc1 [ZOLPIDEM]
> 30 µM: [1] | [2] | [3] | [4] | [7]
18 µM: [9]
> 10 µM: [5] | [6]
